# Measurements published in PMC9328741 (Microbial Biotechnology, 2022).
# Where two headings read alike, the source gives them in different places.
# Tests used:
# MycspAAO [1] = assay: initial rates from HMF concentration over time, Lineweaver-Burk; assay type: biochemical, Mycobacterium sp. MS1601; settings: 0.1-80 mM HMF, 10 µg/ml enzyme, 100 mM sodium phosphate pH 8, 30 °C
# MycspAAO [2] = settings: 0.1-80 mM HMF, 10 µg/ml enzyme, 100 mM sodium phosphate pH 8, 30 °C
structure (smiles),measurement,setting,value
O=Cc1ccc(CO)o1 [5-hydroxymethylfurfural],Km,MycspAAO [1],3300 ± 300 µM
same,Km,MycspAAO [2],1900 ± 5 µM
